Test results taken from PubChem BioAssay (NCI).
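Dose response: 5 concentrations. Exposure: 48 h. Format: 96-well plates. Endpoint: linear interpolation; highest concentration if not reached. TGI: total growth inhibition.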

How the values were obtained:
Experiment in all cases: DTP human tumour cell line panel, 48 h
MCF7 breast = system: MCF7 breast
TK-10 renal = system: TK-10 renal
SK-MEL-5 melanoma = system: SK-MEL-5 melanoma
OVCAR-8 ovarian = system: OVCAR-8 ovarian
T-47D breast = system: T-47D breast
CAKI-1 renal = system: CAKI-1 renal
NCI-H226 lung = system: NCI-H226 lung
SK-MEL-2 melanoma = system: SK-MEL-2 melanoma
BT-549 breast = system: BT-549 breast
IGROV1 ovarian = system: IGROV1 ovarian
K-562 leukemia = system: K-562 leukemia
SW-620 colon = system: SW-620 colon
RXF 393 renal = system: RXF 393 renal
HCT-15 colon = system: HCT-15 colon
HOP-92 NSCLC = system: HOP-92 NSCLC
LOX IMVI melanoma = system: LOX IMVI melanoma
CCRF-CEM leukemia = system: CCRF-CEM leukemia
MDA-N = system: MDA-N
SNB-19 CNS = system: SNB-19 CNS
NCI/ADR-RES ovarian = system: NCI/ADR-RES ovarian
SK-MEL-28 melanoma = system: SK-MEL-28 melanoma
NCI-H460 lung = system: NCI-H460 lung
A498 renal = system: A498 renal
PC-3 prostate = system: PC-3 prostate
MDA-MB-231 breast = system: MDA-MB-231 breast
MALME-3M melanoma = system: MALME-3M melanoma
OVCAR-5 ovarian = system: OVCAR-5 ovarian
HT29 colon = system: HT29 colon
RPMI-8226 leukemia = system: RPMI-8226 leukemia
DU-145 prostate = system: DU-145 prostate
MOLT-4 leukemia = system: MOLT-4 leukemia
UACC-257 melanoma = system: UACC-257 melanoma
U251 CNS = system: U251 CNS
OVCAR-3 ovarian = system: OVCAR-3 ovarian
HS 578T breast = system: HS 578T breast
OVCAR-4 ovarian = system: OVCAR-4 ovarian
UACC-62 melanoma = system: UACC-62 melanoma
KM12 colon = system: KM12 colon
M14 melanoma = system: M14 melanoma
HOP-62 NSCLC = system: HOP-62 NSCLC
SNB-75 CNS = system: SNB-75 CNS
NCI-H23 lung = system: NCI-H23 lung
UO-31 renal = system: UO-31 renal
SK-OV-3 ovarian = system: SK-OV-3 ovarian
HCC-2998 colon = system: HCC-2998 colon
SF-295 CNS = system: SF-295 CNS
SR leukemia = system: SR leukemia
HCT-116 colon = system: HCT-116 colon
MDA-MB-435 = system: MDA-MB-435
HL-60(TB) leukemia = system: HL-60(TB) leukemia
COLO 205 colon = system: COLO 205 colon
SN12C renal = system: SN12C renal
EKVX NSCLC = system: EKVX NSCLC
NCI-H522 lung = system: NCI-H522 lung
A549 NSCLC = system: A549 NSCLC
SF-268 CNS = system: SF-268 CNS
786-0 renal = system: 786-0 renal
ACHN renal = system: ACHN renal

CCCOC1OC(CS(=O)(=O)O)C(OC(C)=O)C(OC(C)=O)C1OC(C)=O (configuration not stated)
TGI (MCF7 breast): > 100 µM
TGI (TK-10 renal): > 100 µM
TGI (SK-MEL-5 melanoma): > 100 µM
TGI (OVCAR-8 ovarian): > 100 µM
TGI (T-47D breast): > 100 µM
TGI (CAKI-1 renal): > 100 µM
TGI (NCI-H226 lung): > 100 µM
TGI (SK-MEL-2 melanoma): > 100 µM
TGI (BT-549 breast): > 100 µM
TGI (IGROV1 ovarian): > 100 µM
TGI (K-562 leukemia): > 100 µM
TGI (SW-620 colon): > 100 µM
TGI (RXF 393 renal): > 100 µM
TGI (HCT-15 colon): > 100 µM
TGI (HOP-92 NSCLC): > 100 µM
TGI (LOX IMVI melanoma): > 100 µM
TGI (CCRF-CEM leukemia): > 100 µM
TGI (MDA-N): > 100 µM
TGI (SNB-19 CNS): > 100 µM
TGI (NCI/ADR-RES ovarian): > 100 µM
TGI (SK-MEL-28 melanoma): > 100 µM
TGI (NCI-H460 lung): > 100 µM
TGI (A498 renal): > 100 µM
TGI (PC-3 prostate): > 100 µM
TGI (MDA-MB-231 breast): > 100 µM
TGI (MALME-3M melanoma): > 100 µM
TGI (OVCAR-5 ovarian): > 100 µM
TGI (HT29 colon): > 100 µM
TGI (RPMI-8226 leukemia): > 100 µM
TGI (DU-145 prostate): > 100 µM
TGI (MOLT-4 leukemia): > 100 µM
TGI (UACC-257 melanoma): > 100 µM
TGI (U251 CNS): > 100 µM
TGI (OVCAR-3 ovarian): > 100 µM
TGI (HS 578T breast): > 100 µM
TGI (OVCAR-4 ovarian): > 100 µM
TGI (UACC-62 melanoma): > 100 µM
TGI (KM12 colon): > 100 µM
TGI (M14 melanoma): > 100 µM
TGI (HOP-62 NSCLC): > 100 µM
TGI (SNB-75 CNS): > 100 µM
TGI (NCI-H23 lung): > 100 µM
TGI (UO-31 renal): > 100 µM
TGI (SK-OV-3 ovarian): > 100 µM
TGI (HCC-2998 colon): > 100 µM
TGI (SF-295 CNS): > 100 µM
TGI (SR leukemia): > 100 µM
TGI (HCT-116 colon): > 100 µM
TGI (MDA-MB-435): > 100 µM
TGI (HL-60(TB) leukemia): > 100 µM
TGI (COLO 205 colon): > 100 µM
TGI (SN12C renal): > 100 µM

c1cc2c3c(c1)[C@@H]1O[C@@H]1c1cccc(c1-3)[C@@H]1O[C@H]21
TGI (MCF7 breast): > 100 µM
TGI (TK-10 renal): > 100 µM
TGI (SK-MEL-5 melanoma): 35.6 µM
TGI (EKVX NSCLC): 34.4 µM
TGI (OVCAR-8 ovarian): 46.2 µM
TGI (T-47D breast): 62.8 µM
TGI (CAKI-1 renal): 32.7 µM
TGI (NCI-H226 lung): > 100 µM
TGI (SK-MEL-2 melanoma): 42.5 µM
TGI (BT-549 breast): 98.5 µM
TGI (K-562 leukemia): > 100 µM
TGI (RXF 393 renal): 17.2 µM
TGI (HCT-15 colon): 47.2 µM
TGI (HOP-92 NSCLC): 50.2 µM
TGI (LOX IMVI melanoma): 10.7 µM
TGI (MDA-N): 41.9 µM
TGI (SNB-19 CNS): > 100 µM
TGI (NCI-H522 lung): 30.1 µM
TGI (NCI/ADR-RES ovarian): 61.6 µM
TGI (SK-MEL-28 melanoma): 31.3 µM
TGI (A549 NSCLC): > 100 µM
TGI (A498 renal): > 100 µM
TGI (SF-268 CNS): 33.6 µM
TGI (PC-3 prostate): 51.9 µM
TGI (MDA-MB-231 breast): 41.8 µM
TGI (MALME-3M melanoma): 29.6 µM
TGI (OVCAR-5 ovarian): 31.4 µM
TGI (786-0 renal): 75 µM
TGI (HT29 colon): 50.1 µM
TGI (DU-145 prostate): 38.7 µM
TGI (MOLT-4 leukemia): > 100 µM
TGI (UACC-257 melanoma): 48.4 µM
TGI (ACHN renal): 43 µM
TGI (U251 CNS): 33 µM
TGI (HS 578T breast): 40 µM
TGI (OVCAR-4 ovarian): 56.3 µM
TGI (UACC-62 melanoma): 33.3 µM
TGI (KM12 colon): 44 µM
TGI (M14 melanoma): 34.1 µM
TGI (HOP-62 NSCLC): > 100 µM
TGI (SNB-75 CNS): 70.1 µM
TGI (NCI-H23 lung): 33.1 µM
TGI (UO-31 renal): 30.3 µM
TGI (SK-OV-3 ovarian): > 100 µM
TGI (SF-295 CNS): > 100 µM
TGI (SR leukemia): > 100 µM
TGI (HCT-116 colon): 38.5 µM
TGI (MDA-MB-435): 32.5 µM
TGI (COLO 205 colon): 44.6 µM
TGI (SN12C renal): 54.2 µM
